Assay: Solubility of fluindapyr in test solvent at 140 g/L, crystal growth check after one week at 0° C.
Format: physicochemical
Design: key: PASS: A solution without crystal growth under the storage condition was considered a Pass
Method: In order to test the solubility of an active ingredient comprising an aminoindane amide active compound, fluindapyr was added into a test solvent at the concentration of 140 g/L under sufficient agitation. The test solvents were selected based on Hansen Solubility Parameters with a Relative Energy Difference (RED) of between 0.7 and 1.6. The completed dissolved solutions were further stored for one week at 0° C. to check if any crystals grew or not under the storage condition.

CC1CC(C)(C)c2c(F)ccc(NC(=O)c3cn(C)nc3C(F)F)c21 (centres unmarked) [fluindapyr]
Dissolution (solvent 2-ethylhexanol): FAIL
Dissolution (solvent N,N-dimethyldecanamide): PASS
Dissolution (solvent N-butyl acetate): FAIL
Dissolution (solvent N-heptane): FAIL
Dissolution (solvent O-dichlorobenzene): FAIL
Dissolution (solvent POWERBLOX SV-17): FAIL
Dissolution (solvent acetonitrile): FAIL
Dissolution (solvent dibutyl ether): FAIL
Dissolution (solvent diethylene glycol monoethyl ether): PASS
Dissolution (solvent diethylene glycol monomethyl ether): PASS
Dissolution (solvent diethylene glycol n-butyl ether acetate): FAIL
Dissolution (solvent diisobutyl ketone): FAIL
Dissolution (solvent dimethyl formamide): FAIL
Dissolution (solvent dipropylene glycol methyl ether acetate): FAIL
Dissolution (solvent dipropylene glycol n-butyl ether): FAIL
Dissolution (solvent dipropylene glycol n-propyl ether): FAIL
Dissolution (solvent dipropyleneglycol phenyl ether): FAIL
Dissolution (solvent ethoxytriglycol): FAIL
Dissolution (solvent ethylene glycol monobutyl ether): FAIL
Dissolution (solvent ethylene glycol n-butyl ether acetate): FAIL
Dissolution (solvent ethylene glycol phenyl ether): FAIL
Dissolution (solvent isobutyl heptyl ketone): FAIL
Dissolution (solvent methyl alcohol): FAIL
Dissolution (solvent methyl ethyl ketone): FAIL
Dissolution (solvent methyl isobutyl ketone): FAIL
Dissolution (solvent perchloroethylene): FAIL
Dissolution (solvent propylene carbonate): FAIL
Dissolution (solvent propylene glycol): FAIL
Dissolution (solvent propylene glycol diacetate): FAIL
Dissolution (solvent propylene glycol monomethyl ether acetate): FAIL
Dissolution (solvent propylene glycol n-butyl ether): FAIL
Dissolution (solvent propylene glycol phenyl ether): FAIL
Dissolution (solvent tetrahydrofuran): FAIL
Dissolution (solvent toluene): FAIL
Dissolution (solvent tripropylene glycol n-butyl ether): FAIL
